Test results taken from patent publication US20140128352A1, “COMPOUNDS AND METHODS FOR MODULATING MITOCHONDRIAL METABOLISM AND REACTIVE OXYGEN SPECIES PRODUCTION” (Buck Institute for Research on Aging, priority 2012, published 2014).

Target: T1, GPDH (Rattus norvegicus, UniProt P35571)
T1 construct: from tissue; host or cells: rat skeletal muscle mitochondria (Wistar, Harlan Laboratories)
T1 sequence (P35571 43-727): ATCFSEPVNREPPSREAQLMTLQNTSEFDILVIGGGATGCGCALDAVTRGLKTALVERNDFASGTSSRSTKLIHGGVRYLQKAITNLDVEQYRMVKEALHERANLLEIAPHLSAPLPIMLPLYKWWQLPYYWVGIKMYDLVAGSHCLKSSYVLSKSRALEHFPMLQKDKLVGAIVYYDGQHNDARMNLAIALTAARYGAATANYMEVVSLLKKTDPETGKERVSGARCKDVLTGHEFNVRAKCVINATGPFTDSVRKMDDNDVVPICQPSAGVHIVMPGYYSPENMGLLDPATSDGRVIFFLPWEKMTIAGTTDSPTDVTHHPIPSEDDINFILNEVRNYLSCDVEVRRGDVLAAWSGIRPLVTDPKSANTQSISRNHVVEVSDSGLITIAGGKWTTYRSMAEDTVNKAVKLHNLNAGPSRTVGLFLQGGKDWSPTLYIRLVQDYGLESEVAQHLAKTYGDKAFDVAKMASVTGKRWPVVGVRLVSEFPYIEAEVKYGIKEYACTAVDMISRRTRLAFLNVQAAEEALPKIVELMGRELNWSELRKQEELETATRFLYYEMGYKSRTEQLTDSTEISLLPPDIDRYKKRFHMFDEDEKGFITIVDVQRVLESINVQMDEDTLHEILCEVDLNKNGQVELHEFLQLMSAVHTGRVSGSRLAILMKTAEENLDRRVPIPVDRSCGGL
Experiment: Retest of GPDH ROS production (expanded microplate panel / cuvette)
Format: biochemical
Settings: microplate or cuvette
Method: Compounds identified as site-selective hits as well as structural analogs were re-sourced from ChemBridge and dissolved in DMSO as 80 mM stocks. Master Titration Plates were prepared manually by serially diluting 80 mM compound stocks between 0.08 and 80 mM on 96-well microplates. Four compounds were titrated in duplicate on each plate. Additional DMSO controls were interspersed across these plates to serve as local normalization controls during analysis since two-way median polishing was not appropriate. Just prior to use, compounds were diluted 100-fold with standard buffer (10X). The same known inhibitor positive controls were included on each plate as during high-throughput screening.
The five core ROS assays and single ΔΨm assay were carried out as in the initial high-throughput screen. In addition, several assays were included to help validate the specificity of the compounds for a given site of production. All compounds were titrated against separate assays targeting IQ ROS and IIIQo ROS using subsaturating (0.5 mM final) succinate. […] Specifically, ΔΨm was monitored separately with 5 mM succinate (in the presence of 4 μM rotenone) in addition to glutamate and malate as before. The use of different substrates was designed to reveal compounds that disrupt mitochondrial function in a substrate specific manner.
Most frequently, these changes involved the use of different substrates to supply electrons from an alternative entry point in the chain. If a site of ROS production is being targeted selectively by a compound, then in many cases the supply of electrons should not influence the effectiveness of this compound at suppressing ROS production. […]
The fluorescence values in each well were scaled in relation to the intra-plate DMSO and known inhibitor controls as in the high-throughput screen except that median values for local interspersed DMSO wells (3-6 wells) were used rather than just the 8 DMSO wells in columns 1 and 12. […]

| SMILES | effect on GPDH ROS on retesting |
| --- | --- |
| O=C(O)CSc1cccc(C(=O)Nc2ccc(Br)cc2)c1 [Compound 47] | progressively inhibited GPDH ROS |
| O=C(O)CCC(=O)Nc1ccc(-c2nc3cc4ccccc4cc3[nH]2)cc1 [Compound 61] | more potent inhibitor of GPDH-specific ROS, ΔΨm, and respiration |
